Test system: contaminating germs in soil
Test: Limited search of carbon sources: assimilation by contaminating germs in soil
Assay type: cell-based
Settings: conclusion from Table 5

For O=C[C@@H](O)[C@H](O)[C@H](O)CO [Arabinose], the “likelihood of assimilation of the carbon source by contaminating germs in soil” value (shortened to “likelihood”) was “less likely to be assimilated”.
N=C(N)NCCC[C@H](N)C(=O)O [Arginine] was tested, and the “likelihood” value was “less likely to be assimilated”.
N[C@@H](CC(=O)O)C(=O)O [Aspartic acid] was tested, and the “likelihood” value was “less likely to be assimilated”.
For O[C@H]1[C@H](O)[C@@H](O)[C@H](O)[C@@H](O)[C@H]1O [Inositol], the “likelihood” value was “less likely to be assimilated”.
With CC[C@H](C)[C@H](N)C(=O)O [Isoleucine] the “likelihood” value was “less likely to be assimilated”.
For CC(C)C[C@H](N)C(=O)O [Leucine], the “likelihood” value was “less likely to be assimilated”.
With NCCCC[C@H](N)C(=O)O [Lysine] the “likelihood” value was “less likely to be assimilated”.
With OC[C@@H](O)[C@@H](O)[C@H](O)[C@H](O)CO [Mannitol] the “likelihood” value was “less likely to be assimilated”.
CSCC[C@H](N)C(=O)O [Methionine] was tested, and the “likelihood” value was “less likely to be assimilated”.
In the case of N[C@@H](Cc1ccccc1)C(=O)O [Phenylalanine], the “likelihood” value is reported as “less likely to be assimilated”.
O=C(O)[C@@H]1CCCN1 [Proline] was tested, and the “likelihood” value was “less likely to be assimilated”.
In the case of C[C@@H](O)[C@H](N)C(=O)O [Threonine], the “likelihood” value is reported as “less likely to be assimilated”.
For OC[C@H]1O[C@H](O[C@H]2O[C@H](CO)[C@@H](O)[C@H](O)[C@H]2O)[C@H](O)[C@@H](O)[C@@H]1O [Trehalose], the “likelihood” value was “less likely to be assimilated”.
For N[C@@H](Cc1ccc(O)cc1)C(=O)O [Tyrosine], the “likelihood” value was “less likely to be assimilated”.
With CC(C)[C@H](N)C(=O)O [Valine] the “likelihood” value was “less likely to be assimilated”.
For Polygalacturonic acid, the “likelihood” value was “less likely to be assimilated”.

Test system: other bacterial cells
Test: Limited search of carbon sources: colony formation of other bacterial cells from a soil suspension on carbon-source agar medium
Settings: soil suspension smeared on agar medium with the carbon source, 30° C., 5 days; relative value, carbon source-free medium = 100%
Description: (§1) Any carbon source, crystal violet (antibiotic) and agar are mixed with basic medium components so as to prepare an agar medium. A soil suspension (100 p1) prepared by suspending of soil for plant cultivation (1 g) in water (100 ml) is smeared (repeatedly 3 times) on the medium, followed by culture at 30° C. for 5 days. The numbers of colonies of filamentous bacterial cells and other bacterial cells that are formed on the medium are counted. Each counted value is represented as a relative value (%) determined based on the number of colonies formed on a “carbon source-free” medium (100%). If the degree of colony formation is less than 30 (for filamentous bacterial cells) and is less than 60 (for bacterial cells), the carbon source is selected as a carbon source having high growth inhibitory effects. The smaller value indicates the smaller number of contaminating germs (filamentous bacteria and other bacteria) that assimilate the carbon source.

First: O=C[C@@H](O)[C@H](O)[C@H](O)CO [Arabinose]
Second: N=C(N)NCCC[C@H](N)C(=O)O [Arginine]
The “Other bacterial cells Average number of grown colonies ± standard error” value of the first is lower: 51 ± 2% for the first, 99 ± 3% for the second.

First: N[C@@H](CC(=O)O)C(=O)O [Aspartic acid]
Second: O=C[C@H](O)[C@@H](O)[C@H](O[C@@H]1O[C@H](CO)[C@@H](O)[C@H](O)[C@H]1O)[C@H](O)CO [Cellobiose]
The “Other bacterial cells Average number of grown colonies ± standard error” value of the first is lower: 32 ± 3% for the first, 76 ± 5% for the second.

Compared with O=C(CO)[C@@H](O)[C@H](O)[C@H](O)CO [Fructose], N[C@@H](CCC(=O)O)C(=O)O [Glutamic acid] is lower in “Other bacterial cells Average number of grown colonies ± standard error” value: 84 ± 3% for the first, 66 ± 6% for the second.

NC(=O)CC[C@H](N)C(=O)O [Glutamine] and NCC(=O)O [Glycine] are within error of each other in “Other bacterial cells Average number of grown colonies ± standard error” value: 66 ± 4% for the first, 69 ± 5% for the second.

N[C@@H](Cc1c[nH]cn1)C(=O)O [Histidine] and O[C@H]1[C@H](O)[C@@H](O)[C@H](O)[C@@H](O)[C@H]1O [Inositol] are within error of each other in “Other bacterial cells Average number of grown colonies ± standard error” value: 62 ± 2% for the first, 57 ± 7% for the second.

Compared with CC[C@H](C)[C@H](N)C(=O)O [Isoleucine], OC[C@H]1O[C@@H](O[C@H]2[C@H](O)[C@@H](O)C(O)O[C@@H]2CO)[C@H](O)[C@@H](O)[C@H]1O (stereo partly drawn) [Lactose] is higher in “Other bacterial cells Average number of grown colonies ± standard error” value: 44 ± 2% for the first, 77 ± 4% for the second.

Going from CC(C)C[C@H](N)C(=O)O [Leucine] to NCCCC[C@H](N)C(=O)O [Lysine], the “Other bacterial cells Average number of grown colonies ± standard error” value rises from 42 ± 3% to 56 ± 5%.

Going from OC[C@@H](O)[C@@H](O)[C@H](O)[C@H](O)CO [Mannitol] to CSCC[C@H](N)C(=O)O [Methionine], the “Other bacterial cells Average number of grown colonies ± standard error” value falls from 54 ± 4% to 38 ± 4%.

Compared with N[C@@H](Cc1ccccc1)C(=O)O [Phenylalanine], O=C(O)[C@@H]1CCCN1 [Proline] is higher in “Other bacterial cells Average number of grown colonies ± standard error” value: 36 ± 6% for the first, 66 ± 4% for the second.

Going from OC[C@@H](O)[C@@H](O)[C@@H](O)CO [Ribitol] to N[C@@H](CO)C(=O)O [Serine], the “Other bacterial cells Average number of grown colonies ± standard error” value rises from 67 ± 2% to 87 ± 3%.

First: O=C([O-])CCCCC(=O)[O-].[Na+].[Na+] [Sodium adipate]
Second: OC[C@@H](O)[C@@H](O)[C@H](O)[C@@H](O)CO [Sorbitol]
The “Other bacterial cells Average number of grown colonies ± standard error” value of the first is higher: 122 ± 10% for the first, 63 ± 5% for the second.

O=C(CO)[C@H](O)[C@@H](O)[C@H](O)CO [Sorbose] and OC[C@H]1O[C@@](CO)(O[C@H]2O[C@H](CO)[C@@H](O)[C@H](O)[C@H]2O)[C@@H](O)[C@@H]1O [Sucrose] are within error of each other in “Other bacterial cells Average number of grown colonies ± standard error” value: 68 ± 3% for the first, 71 ± 4% for the second.

First: O=C(O)C(O)C(O)C(=O)O (stereo not drawn) [Tartaric acid]
Second: C[C@@H](O)[C@H](N)C(=O)O [Threonine]
The “Other bacterial cells Average number of grown colonies ± standard error” value of the first is higher: 81 ± 3% for the first, 59 ± 5% for the second.

Going from OC[C@H]1O[C@H](O[C@H]2O[C@H](CO)[C@@H](O)[C@H](O)[C@H]2O)[C@H](O)[C@@H](O)[C@@H]1O [Trehalose] to N[C@@H](Cc1c[nH]c2ccccc12)C(=O)O [Tryptophan], the “Other bacterial cells Average number of grown colonies ± standard error” value rises from 51 ± 7% to 100 ± 5%.

Going from N[C@@H](Cc1ccc(O)cc1)C(=O)O [Tyrosine] to CC(C)[C@H](N)C(=O)O [Valine], the “Other bacterial cells Average number of grown colonies ± standard error” value falls from 55 ± 4% to 38 ± 5%.

For Polygalacturonic acid, the “Other bacterial cells Average number of grown colonies ± standard error” value was 19 ± 2%.

Test system: filamentous bacterial cells
Test: Limited search of carbon sources: colony formation of filamentous bacterial cells from a soil suspension on carbon-source agar medium
Settings: soil suspension smeared on agar medium with the carbon source, 30° C., 5 days; relative value, carbon source-free medium = 100%
Description: as §1

First: O=C[C@@H](O)[C@H](O)[C@H](O)CO [Arabinose]
Second: N=C(N)NCCC[C@H](N)C(=O)O [Arginine]
The “Filamentous bacterial cells Average number of grown colonies ± standard error” value of the first is higher: 100 ± 0% for the first, 19 ± 8% for the second.

First: N[C@@H](CC(=O)O)C(=O)O [Aspartic acid]
Second: O=C[C@H](O)[C@@H](O)[C@H](O[C@@H]1O[C@H](CO)[C@@H](O)[C@H](O)[C@H]1O)[C@H](O)CO [Cellobiose]
The “Filamentous bacterial cells Average number of grown colonies ± standard error” value of the first is lower: 11 ± 9% for the first, 42 ± 18% for the second.

Compared with O=C(CO)[C@@H](O)[C@H](O)[C@H](O)CO [Fructose], N[C@@H](CCC(=O)O)C(=O)O [Glutamic acid] is lower in “Filamentous bacterial cells Average number of grown colonies ± standard error” value: 100 ± 0% for the first, 83 ± 14% for the second.

First: NC(=O)CC[C@H](N)C(=O)O [Glutamine]
Second: NCC(=O)O [Glycine]
The “Filamentous bacterial cells Average number of grown colonies ± standard error” value of the first is higher: 100 ± 0% for the first, 72 ± 2% for the second.

Going from N[C@@H](Cc1c[nH]cn1)C(=O)O [Histidine] to O[C@H]1[C@H](O)[C@@H](O)[C@H](O)[C@@H](O)[C@H]1O [Inositol], the “Filamentous bacterial cells Average number of grown colonies ± standard error” value falls from 203 ± 32% to 0 ± 0%.

Compared with CC[C@H](C)[C@H](N)C(=O)O [Isoleucine], OC[C@H]1O[C@@H](O[C@H]2[C@H](O)[C@@H](O)C(O)O[C@@H]2CO)[C@H](O)[C@@H](O)[C@H]1O (stereo partly drawn) [Lactose] is higher in “Filamentous bacterial cells Average number of grown colonies ± standard error” value: 28 ± 2% for the first, 128 ± 2% for the second.

CC(C)C[C@H](N)C(=O)O [Leucine] and NCCCC[C@H](N)C(=O)O [Lysine] are within error of each other in “Filamentous bacterial cells Average number of grown colonies ± standard error” value: 67 ± 141% for the first, 33 ± 14% for the second.

OC[C@@H](O)[C@@H](O)[C@H](O)[C@H](O)CO [Mannitol] and CSCC[C@H](N)C(=O)O [Methionine] are within error of each other in “Filamentous bacterial cells Average number of grown colonies ± standard error” value: 27 ± 17% for the first, 38 ± 16% for the second.

Compared with N[C@@H](Cc1ccccc1)C(=O)O [Phenylalanine], O=C(O)[C@@H]1CCCN1 [Proline] is lower in “Filamentous bacterial cells Average number of grown colonies ± standard error” value: 47 ± 19% for the first, 11 ± 9% for the second.

OC[C@@H](O)[C@@H](O)[C@@H](O)CO [Ribitol] and N[C@@H](CO)C(=O)O [Serine] are within error of each other in “Filamentous bacterial cells Average number of grown colonies ± standard error” value: 139 ± 11% for the first, 131 ± 16% for the second.

First: O=C([O-])CCCCC(=O)[O-].[Na+].[Na+] [Sodium adipate]
Second: OC[C@@H](O)[C@@H](O)[C@H](O)[C@@H](O)CO [Sorbitol]
The “Filamentous bacterial cells Average number of grown colonies ± standard error” value of the first is lower: 36 ± 18% for the first, 128 ± 2% for the second.

Compared with O=C(CO)[C@H](O)[C@@H](O)[C@H](O)CO [Sorbose], OC[C@H]1O[C@@](CO)(O[C@H]2O[C@H](CO)[C@@H](O)[C@H](O)[C@H]2O)[C@@H](O)[C@@H]1O [Sucrose] is higher in “Filamentous bacterial cells Average number of grown colonies ± standard error” value: 128 ± 2% for the first, 211 ± 15% for the second.

Going from O=C(O)C(O)C(O)C(=O)O (stereo not drawn) [Tartaric acid] to C[C@@H](O)[C@H](N)C(=O)O [Threonine], the “Filamentous bacterial cells Average number of grown colonies ± standard error” value falls from 64 ± 6% to 0 ± 0%.

OC[C@H]1O[C@H](O[C@H]2O[C@H](CO)[C@@H](O)[C@H](O)[C@H]2O)[C@H](O)[C@@H](O)[C@@H]1O [Trehalose] and N[C@@H](Cc1c[nH]c2ccccc12)C(=O)O [Tryptophan] are within error of each other in “Filamentous bacterial cells Average number of grown colonies ± standard error” value: 156 ± 5% for the first, 167 ± 18% for the second.

Going from N[C@@H](Cc1ccc(O)cc1)C(=O)O [Tyrosine] to CC(C)[C@H](N)C(=O)O [Valine], the “Filamentous bacterial cells Average number of grown colonies ± standard error” value falls from 81 ± 39% to 19 ± 8%.

Polygalacturonic acid was tested, and the “Filamentous bacterial cells Average number of grown colonies ± standard error” value was 8 ± 7%.

Reference: patent US20120052528A1, “METHOD FOR PRODUCING SELECTIVE MEDIUM AND USE THEREOF” (THE UNIVERSITY OF TOKYO, priority 2009, published 2012)
